# Measured values from patent US20160137639A1, “TRIAZOLE-ISOXAZOLE COMPOUND AND MEDICAL USE THEREOF” (JAPAN TOBACCO INC., priority 2012, published 2016).
# pEC50: −log10 of the molar value. Like-named read-outs stand apart in the source and are kept apart here.
# Experiments:
# mouse RORγ = molecular target: T1, mouse RORγ (Mus musculus, UniProt P51450); experiment: Luciferase reporter gene assay of inhibitory effect against RORγ transcriptional activity (GAL4-mRORγ plasmid in CHO cells); assay type: cell-based; conditions: for EC50: read-out: LUC EC50 (μM) mRORg; for pEC50: read-out: LUC EC50 mRORg
# T1 construct: mouse, NM_011281.2 and from Ile251 to Lys516; expressed in transfected cells; host or cells: CHO cells (transient co-transfection with pG5-Luc reporter)
# T1 sequence (P51450 251-516): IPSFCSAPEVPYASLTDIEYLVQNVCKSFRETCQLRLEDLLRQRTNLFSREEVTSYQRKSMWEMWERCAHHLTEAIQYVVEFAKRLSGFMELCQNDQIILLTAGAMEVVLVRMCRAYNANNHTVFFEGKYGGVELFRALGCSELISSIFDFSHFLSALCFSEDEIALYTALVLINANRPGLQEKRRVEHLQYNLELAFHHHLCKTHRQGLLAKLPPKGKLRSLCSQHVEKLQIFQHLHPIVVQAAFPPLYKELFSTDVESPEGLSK
# Description: (§1) In vitro assay of inhibitory effect against RORγ transcriptional activity
# (§2) Inhibitory effect of test article on transcriptional activity of RORγ was measured by means of the following luciferase reporter gene assay.
# (§3) A cDNA encoding human and mouse RORγ ligand binding domain (LBD) were obtained based on the reported sequences (Genebank accession number and sequence: human, NM_005060.3 and from Ser253 to Lys518; mouse, NM_011281.2 and from Ile251 to Lys516).
# (§4) The cDNA of human RORγ or mouse RORγ was inserted into pFA-CMV vector (Strategene), which expresses GAL4-DNA binding domain fusion protein.
# (§5) The resulting plasmids are hereinafter referred to as GAL4-hRORγ plasmid and GAL4-mRORγ plasmid, respectively.
# (§6) Human or mouse GAL4-RORγ plasmid was transiently co-transfected into Chinese hamster ovary cells (CHO cells) with […] plasmid, a reporter plasmid expressing firefly luciferase depending on GAL4.
# (§7) TransIT CHO transfection reagent (Mirus) was used to co-transfect human or mouse GAL4-RORγ plasmid into CHO cells with pG5-Luc plasmid.
# (§8) One day before the assay, CHO cells were suspended in HAM F-12 Nutrient medium containing 10 v/v % fetal bovine serum and seeded at 6×10^6 cells per 175 cm^2 cell culture flask.
# (§9) Fifty four micro litters of Transit-CHO reagent was added into a 15 ml tube containing 1.16 ml of HAM F-12 Nutrient medium without fetal bovine serum and incubated at room temperature for 10 min.
# (§10) The mixture was incubated at room temperature for 10 min.
# (§11) Nine micro litters of CHO Mojo Reagent was then added into each tube and mixed gently. The mixture was incubated at room temperature for 10 min.
# (§12) The resultant transfection reagent was applied to the cell culture.
# (§13) After incubation at 37° C., 5% CO2 for 4 hr, the transfected CHO cells were harvested by a trypsin treatment.
# (§14) The collected cells were resuspended in HAM F-12 Nutrient medium supplemented with 10 v/v % fetal bovine serum and plated into a 384-well-white plate at 8,000 cells/50 uL/well.
# (§15) The plate was incubated at room temperature for 1 hour and then further incubated at 37° C., 5% CO2 for 3 hours.
# (§16) The test articles were dissolved in dimethylsulfoxide (DMSO) to obtain a concentration of 10 mmol/L. The resulting solution was diluted with the medium just before use and added to the cells in the plate to prepare 8 different concentrations of the test article.
# (§17) The final concentration of DMSO was 0.1 v/v % After the addition of the test articles, the cells were incubated at 37° C., 5% CO2 for 2 days.
# (§18) RORγ transcriptional activity was detected as the intracellular luciferase activity using SteadyLite HTS Reporter Gene Assay System (Perkin Elmer).
# (§19) StedyLite Reagent was diluted five-fold into a solution containing 10 mM Tricine, 0.2% w/v BSA, 0.02% v/v Tween-20 to obtain the luciferase substrate solution.
# (§20) After the measurement of the cell viability using Resazurin, the culture media in the 384 well-plate were removed. Then the Luc substrate solution was added into each well.
# (§21) After the incubation at room temperature for 10 minutes, luminescence of each well was measured by a microplate reader.
# (§22) The luciferase activity derived from the luminescence count in the vehicle-control well treated with 0.1% DMSO alone was defined as 100%, and the luciferase activity in the test article was calculated as a percentage (%-of-control) based on the value of the vehicle-control.
# (§23) EC50 value of test article was calculated by curve fitting with GraphPad Prism.
# (§24) The luminescence counts at the concentration of the test article where the cytotoxicity was observed were excluded from the data analysis.
# human RORγ = molecular target: T2, human RORγ (Homo sapiens, UniProt P51449); experiment: Luciferase reporter gene assay of inhibitory effect against RORγ transcriptional activity (GAL4-hRORγ plasmid in CHO cells); assay type: cell-based; conditions: for EC50: read-out: LUC EC50 (μM) hRORg; for pEC50: read-out: LUC EC50 hRORg
# T2 construct: human, NM_005060.3 and from Ser253 to Lys518; expressed in transfected cells; host or cells: CHO cells (transient co-transfection with pG5-Luc reporter)
# T2 sequence (P51449 253-518): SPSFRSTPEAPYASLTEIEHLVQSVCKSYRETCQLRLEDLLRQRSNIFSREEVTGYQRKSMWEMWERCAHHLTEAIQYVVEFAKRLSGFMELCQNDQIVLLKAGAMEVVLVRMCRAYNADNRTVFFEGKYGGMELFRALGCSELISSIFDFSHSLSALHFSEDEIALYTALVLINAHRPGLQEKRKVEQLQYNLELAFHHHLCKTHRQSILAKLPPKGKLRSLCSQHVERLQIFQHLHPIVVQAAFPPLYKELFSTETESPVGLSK
# Description: as §1, §2, §3, §4, §5, §6, §7, §8, §9
# A total 36 uL plasmid solution containing the GAL4-hRORγ plasmid (400 ng), pG5-Luc plasmid (9000 ng) and pcDNA3 plasmid (8600 ng) were added into the tube and mixed gently.
# as §10, §11, §12, §13, §14, §15, §16, §17, §18, §19, §20, §21, §22, §23, §24
Structure (SMILES),EC50 (mouse RORγ) [µM],EC50 (human RORγ) [µM],pEC50 (mouse RORγ),pEC50 (human RORγ)
CC(=O)N1C[C@@H](C(=O)Nc2ccc(C)cc2C)[C@H](c2nnc([C@H]3C[C@@H](CC(C)(C)C)C3)n2C2CC2)C1 [Example F-462],< 3,< 3,,
Cc1ccc(NC(=O)[C@@H](CC(=O)O)Cc2noc([C@H]3C[C@@H](CC(C)(C)C)C3)c2C2CC2)c(Cl)c1 [Example F-677],,,> 5.52,> 5.52
Cc1cccnc1CNC(=O)CCc1nnc(CCC(C)C)n1C1CC1 [Example F-110],> 3,> 3,,
Cc1ccc(NC(=O)[C@H]2CN(S(=O)(=O)C(F)(F)F)C[C@@H]2c2nnc(-c3cc(CC(C)C)on3)n2C2CC2)c(C)c1 [Example F-547],,,> 5.52,> 5.52
CCc1ccccc1NC(=O)CCc1nnc(CCC(C)C)n1C1CC1 [Example F-72],> 3,> 3,,
CC(=O)N1C[C@H](C(=O)Nc2ccc(Cl)cc2C)[C@@H](c2nnc([C@H]3C[C@@H](CC(C)C)C3)n2C2CC2)C1 [Example F-603],,,> 5.52,> 5.52
Cc1ccc(NC(=O)C[C@H](CCC(=O)O)c2noc(-c3noc(CC(C)C)n3)c2C2CC2)c(Cl)c1 [Example E-11],< 3,< 3,,
Cc1ccc(NC(=O)CC(CCCN(C)C)c2nnc(CCCC(C)C)n2C2CC2)c(C)c1 (racemic) [Example F-288],> 3,> 3,,
CC(=O)N1C[C@H](C(=O)Nc2ccc(C)cc2C)[C@@H](c2nnc(-c3cc(CC(C)C)on3)n2C2CC2)C1 [Example F-408],< 3,< 3,,
COCC(C)(C)C[C@H]1C[C@@H](c2onc([C@@H](CCC(=O)O)CC(=O)Nc3ccc(C)cc3Cl)c2C2CC2)C1 [Example F-725],,,> 5.52,> 5.52
Cc1cc(C)c(NC(=O)C[C@H](CCO)c2nnc([C@H]3C[C@@H](CC(C)C)C3)n2C2CC2)c(F)c1 [Example F-548],,,> 5.52,> 5.52
Cc1ccccc1CNC(=O)CCc1nnc(CCC(C)C)n1C1CC1 [Example F-59],> 3,> 3,,
CC(C)CCc1nnc(CCC(=O)NCc2cccc3[nH]ncc23)n1C1CC1 [Example F-128],> 3,> 3,,
CC(=O)N1C[C@@H](C(=O)Nc2ccc(C)cc2C)[C@H](c2nnc(C3CC4(CCCCC4)C3)n2C2CC2)C1 [Example F-474],< 3,> 3,,
"CC(C)(C)C(F)(F)c1cc(-c2onc([C@@H](CCC(=O)O)CC(=O)Nc3ccc(Cl)cc3F)c2C(F)F)no1 [Example E-62, Sodium (S)-5-(4-chloro-2-fluoro-phenylcarbamoyl)-4-[5-(1,1-difluoro-2,2-dimethylpropyl)-4′-difluoromethyl-[3,5′]biisoxazolyl-3′-yl]-pentanoate]",< 3,< 3,,
CC(=O)N1C[C@H](C(=O)Nc2ccc(C)cc2C)[C@@H](c2nnc(-c3ccc(C(C)C)cc3)n2C2CC2)C1 (racemic) [Example F-319],< 3,< 3,,
CCC[C@@H](CC(=O)Nc1ccc(C)cc1C)c1nnc(CCCC(C)(C)C)n1C1CC1 [Example F-528],,,> 5.52,> 5.52
COCC(C)(C)C[C@H]1C[C@@H](c2onc([C@@H](CCC(=O)O)CC(=O)Nc3ccc(CO)cc3Cl)c2C2CC2)C1 [Example F-724],,,> 5.52,> 5.52

Structure (SMILES),EC50 (mouse RORγ) [µM],EC50 (human RORγ) [µM],pEC50 (mouse RORγ),pEC50 (human RORγ)
CC(=O)N1C[C@H](C(=O)Nc2ccc(C)cc2C)[C@@H](c2nnc(CCOC(C)(C)C)n2C2CC2)C1 (racemic) [Example F-222],< 3,> 3,,
Cc1ccc(NC(=O)[C@H]2CN(S(=O)(=O)C(F)(F)F)C[C@@H]2c2nnc(CCCC(C)(C)C)n2C2CC2)c(C)c1 (racemic) [Example F-398],< 3,< 3,,
CC(C)(C)Cc1cc(-c2onc([C@H](CCC(=O)O)CC(=O)Nc3ccc(Cl)cc3Cl)c2C2CC2)no1 [Example E-79],,,> 5.52,> 5.52
COc1cc(C)ccc1CNC(=O)CCc1nnc(CCC(C)C)n1C1CC1 [Example F-148],< 3,< 3,,
Cc1c(Cl)cccc1NC(=O)CCc1nnc(CN2C(=O)c3ccccc3C2=O)n1C1CC1 [Example F-209],> 3,> 3,,
Cc1ccc(NC(=O)[C@H]2CN(C(=O)N3CCN(C)CC3)C[C@@H]2c2nnc([C@H]3C[C@@H](CC(C)(C)C)C3)n2C2CC2)c(C)c1 [Example F-651],,,> 5.52,> 5.52
Cc1ccc(NC(=O)C[C@@H](c2nnc([C@H]3C[C@@H](CC(C)C)C3)n2C2CC2)N(C)C(=O)C(C)C)c(C)c1 [Example F-530],,,> 5.52,> 5.52
Cc1ccc(NC(=O)CCc2noc(C(F)(F)c3cc(C(C)(C)C)no3)c2C2CC2)c(Cl)c1 [Example F-740],,,> 5.52,> 5.52
Cc1ccc(NC(=O)[C@H](CCC(=O)O)Cc2noc([C@H]3C[C@@H](CC(C)(C)C)C3)c2C2CC2)c(Cl)c1 [Example F-683],,,> 5.52,> 5.52
CC(C)(C)c1cc(-c2onc([C@@H](CCC(=O)O)CC(=O)Nc3ccc(Cl)cc3F)c2C2CC2)no1 [Example E-69],< 3,< 3,,
Cc1c(Cl)cccc1NC(=O)CC(CCO)c1nnc(CCC(C)C)n1C1CC1 (racemic) [Example F-175],< 3,< 3,,
CCn1c(CCC2CCCCC2)nnc1[C@H]1C[C@@H]1C(=O)Nc1cccc2ccccc12 (racemic) [Example F-37],< 3,,,
Cc1ccc(NC(=O)C[C@@H](c2nnc([C@H]3C[C@@H](CC(C)C)C3)n2C2CC2)[C@H]2C[C@@H](O)C2)c(C)c1 [Example F-515],,,> 5.52,
Cc1ccc(NC(=O)C[C@H](c2nnc([C@H]3C[C@@H](CC(C)C)C3)n2C2CC2)[C@H]2C[C@H](O)C2)c(C)c1 [Example F-522],,,< 5.52,
Cc1ccc(NC(=O)C[C@H](c2nnc([C@H]3C[C@@H](CC(C)C)C3)n2C2CC2)[C@H]2C[C@@H](O)C2)c(C)c1 [Example F-514],,,< 5.52,
Cc1ccc(NC(=O)[C@H](CC(=O)O)Cc2noc([C@H]3C[C@@H](CC(C)(C)C)C3)c2C2CC2)c(Cl)c1 [Example F-678],,,,> 5.52
Cc1ccc(NC(=O)C[C@@H](c2nnc([C@H]3C[C@@H](CC(C)C)C3)n2C2CC2)[C@H]2C[C@H](O)C2)c(C)c1 [Example F-523],,,> 5.52,
CC(=O)N1C[C@H](C(=O)Nc2ccc(C)cc2C)[C@@H](c2nnc(CCCC(C)(C)C)n2C2CC2)C1 [Example F-432],,< 3,,
